Assay results as given in patent US7160902B2, “Amide derivatives and methods of their use” (Adolor Corporation, priority 2003, dated 2007).

What was measured:
[1] = target: T1, cloned human κ opioid receptor (Homo sapiens, UniProt P41145); test: In vitro binding assay, inhibition of [3H]diprenorphine binding, κ receptor; details: [3H]diprenorphine displacement; read-out: Ki against the human κ receptor
T1 construct: expressed in transfected cells
Protocol: (§1) The potencies of the compounds of the invention were determined by testing the ability of a range of concentrations of each compound to inhibit the binding of the non-selective opioid antagonist, [^3H]diprenorphine, to the cloned human μ, κ, and δ opioid receptors, expressed in separate cell lines. IC50 values were obtained by nonlinear analysis of the data using GraphPad Prism version 3.00 for Windows (GraphPad Software, San Diego). Ki values were obtained by Cheng-Prusoff corrections of IC50 values.
(§2) The receptor binding method was a modification of the method of K. Raynor et al. (Mol. Pharmacol. 1994, 45, 330–334). […] The filters were rinsed 4 times with 1 mL of cold 50 mM Tris HCl, pH 7.8 and radioactivity remaining on the filters determined by scintillation spectroscopy. Nonspecific binding was determined by the minimum values of the titration curves and was confirmed by separate assay wells containing 10 μM naloxone. Ki values were determined by Cheng-Prusoff corrections of IC50 values derived from nonlinear regression fits of 12 point titration curves using GraphPad Prism® version 3.00 for Windows (GraphPad Software, San Diego, Calif.).
(§3) To determine the equilibrium dissociation constant for the inhibitors (Ki), radioligand bound (cpm) in the presence of various concentrations of test compounds was measured. […]

[2] = target: T2, cloned human μ opioid receptor (Homo sapiens, UniProt P35372); test: In vitro binding assay, inhibition of [3H]diprenorphine binding, μ receptor; details: κ versus μ
T2 construct: expressed in transfected cells
Protocol: as §1, §2, §3

[3] = target: T3, cloned human δ opioid receptor (Homo sapiens, UniProt P41143); test: In vitro binding assay, inhibition of [3H]diprenorphine binding, δ receptor; details: κ versus δ
T3 construct: expressed in transfected cells
Protocol: as §1, §2, §3

[4] = target: T4, cloned human κ receptors (Homo sapiens, UniProt P41145); test: Stimulation of [35S]GTPγS binding to membranes; assay type: biochemical
T4 construct: expressed in transfected cells
Protocol: The potencies of the agonists were assessed by their abilities to stimulate [^35S]GTPγS binding to membranes containing the cloned human κ receptors.
To determine the EC50 value, which was the concentration to give half-maximal stimulation of [^35S]GTPγS binding, the amount of [^35S]GTPγS bound in the presence of various concentrations of agonists was measured. The EC50 value was then determined.

[5] = system: formalin-induced flinching; test: In vivo formalin-induced nociception assay; design: species or system male Sprague-Dawley rats; details: dose of 300 μg, i.paw
Description: Administration of formalin into the paw results in a localized inflammation and a pain response that is moderate in intensity and continuous in duration. Unlike many other assays of nociception, the formalin assay measures tonic pain that is a result of tissue injury, and therefore is a model that is more relevant to clinical pain states in humans (See Tjolsen et al., Pain 51: 5–17, 1992). In the rat the response to formalin-induced pain consists of spontaneous flinching behavior, characterized by paw lifting and paw shaking, and a rapid vibration of the paw after drawing it under the body. […] The early or acute phase lasts from 0–5 minutes post-formalin and is followed by a quiescent period lasting approximately 15 minutes. The tonic phase occurs from 20–35 minutes following formalin injection and is the interval where the number of flinching responses is maximal. […]
Inflammation is induced by subcutaneous injection of […] of a 5% formalin solution into the dorsal surface of the right hind paw of male Sprague-Dawley rats weighing 70–90 g. Injections of drug are given into the dorsal surface of the paw prior to formalin injection, and flinching behavior is quantified by counting the number of responses that occur during the tonic phase of pain, lasting from 20–35 minutes after formalin injection. […]

[6] = system: acetic acid-induced writhing; test: Acetic acid-induced writhing; assay type: in vivo, male CF-1 mice; details: Mus musculus, sc; administered subcutaneously; read-out: ED50, blocking of acetic acid-induced writhing
Protocol: Injection of acetic acid into the peritoneal cavity is used as the noxious stimulus, and the number of writhing responses that occur in response to acetic acid are counted in order to quantify the response to pain.
The writhing assay is adapted from the procedure originally described by Taber, et al. (J. Pharmacol. Exp. Ther. 169: 29–38, 1986), using male CF-1 mice weighing 20–25 g. Animals are treated with various doses of drugs prior to the administration of an i.p. injection of 0.6% acetic acid solution. Mice are then placed into observation chambers and the number of writhing responses, as defined by a full hind limb extension and retraction, are recorded.
The mean number of writhing responses is calculated for vehicle-treated control mice, and the percent inhibition (% I) of writhing is calculated for each mouse that is treated with drug using the following formula: % I=100×(mean control writhing responses−individual test responses)(mean control writhing responses) (f) Hyperalgesia Induced by Tape Stripping

T4 sequence (P41145 whole entry): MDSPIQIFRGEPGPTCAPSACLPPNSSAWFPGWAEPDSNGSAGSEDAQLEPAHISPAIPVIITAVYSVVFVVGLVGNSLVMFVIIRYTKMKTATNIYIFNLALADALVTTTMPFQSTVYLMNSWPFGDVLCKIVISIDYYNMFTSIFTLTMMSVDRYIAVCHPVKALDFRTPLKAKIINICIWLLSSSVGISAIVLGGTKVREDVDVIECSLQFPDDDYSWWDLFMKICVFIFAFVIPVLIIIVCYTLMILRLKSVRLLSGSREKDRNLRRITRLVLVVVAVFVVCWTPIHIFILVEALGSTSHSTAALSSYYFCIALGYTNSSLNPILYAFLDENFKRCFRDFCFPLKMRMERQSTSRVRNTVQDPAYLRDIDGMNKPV
T3 sequence (P41143 whole entry): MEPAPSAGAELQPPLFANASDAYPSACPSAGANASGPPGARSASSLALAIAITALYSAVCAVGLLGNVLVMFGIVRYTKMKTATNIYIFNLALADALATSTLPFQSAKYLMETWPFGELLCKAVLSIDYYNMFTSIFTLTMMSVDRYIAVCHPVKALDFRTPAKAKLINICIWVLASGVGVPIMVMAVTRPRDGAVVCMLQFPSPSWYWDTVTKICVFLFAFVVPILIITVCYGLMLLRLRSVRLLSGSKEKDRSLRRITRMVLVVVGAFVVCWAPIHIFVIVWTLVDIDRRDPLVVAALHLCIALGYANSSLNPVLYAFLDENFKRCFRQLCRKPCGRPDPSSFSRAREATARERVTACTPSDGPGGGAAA
T1 sequence (P41145 whole entry): as the sequence (P41145 whole entry) above
T2 sequence (P35372 whole entry): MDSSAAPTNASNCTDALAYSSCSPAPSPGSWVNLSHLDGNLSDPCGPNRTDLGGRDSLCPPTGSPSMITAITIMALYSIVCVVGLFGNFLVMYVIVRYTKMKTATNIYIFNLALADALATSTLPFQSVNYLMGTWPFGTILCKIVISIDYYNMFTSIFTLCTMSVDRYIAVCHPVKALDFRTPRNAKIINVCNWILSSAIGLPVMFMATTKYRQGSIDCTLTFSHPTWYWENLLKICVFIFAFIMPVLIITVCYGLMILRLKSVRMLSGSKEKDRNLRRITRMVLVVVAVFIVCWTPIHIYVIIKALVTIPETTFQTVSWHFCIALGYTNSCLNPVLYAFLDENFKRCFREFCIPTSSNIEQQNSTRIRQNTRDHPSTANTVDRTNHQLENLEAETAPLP

CN(C(=O)CNc1ccccc1)[C@H](CN1CC[C@H](O)C1)c1ccccc1 [Example 1, N-{2-[(S)-3-Hydroxy-pyrrolidin-1-yl]-(S)-1-phenyl-ethyl}-N-methyl-2-phenylamino-acetamide]
Ki [1]: 0.17 nM
selectivity versus the human μ receptor [2]: > 100 ×
selectivity versus the human δ receptor [3]: > 100 ×
functional activity at κ receptor [4]: agonist
EC50 ([4]; half-maximal stimulation of [35S]GTPγS binding, read-out: EC50 (agonist)): 0.05 nM
% A (percent antagonism of formalin-induced flinching) [5]: 96.2%
ED50 [6]: 0.017 mg/kg
